# Test results: publication PMC9243000 (Cell Discovery, 2022)
# Read-outs that look alike come from different tables or passages of the source. Positions of bridges follow the written chain, without caps; N, C: chain ends. Residues, ends and D or L forms follow the SMILES beside them. Chains are numbered I, II in the order given. No end group written: not given here.
# What was measured:
# [1] = test system: SARS-CoV-2 (HKU001a); details: for 50% inhibitory concentration IC50: HKU001a, 18 h; for antiviral activity in the low salt condition: low salt (30 mM, PBS/5), plaque reduction assay
# [2] = test system: endosomal acidification in VeroE6 cells; test: Endosomal acidification assay; assay type: cell-based; details: 4H30 25 μg/mL, bafilomycin A1 50 nM, pH-sensitive dye
# Procedure: Endosomal acidification was detected with a pH-sensitive dye (pHrodo green dextran, Invitrogen, Cat^# P35365) according to the manufacturer’s instructions as previously described but with slight modification. First, VeroE6 cells were treated with DMEM, 4H30 (25.0 μg/mL), or bafilomycin A1 (50.0 nM) at 4 °C for 15 min. Second, VeroE6 cells were added with 100 μg/mL of pH-sensitive dye and DAPI and then incubated at 4 °C for 15 min. Before taking images, cells were further incubated at 37 °C for 15 min and then cells were washed twice with PBS. Finally, PBS was added to cells and images were taken immediately with a confocal microscope (Carl Zeiss LSM 800, Germany).
# Supplementary Fig. S7. 4H30 could inhibit endosomal acidification in VeroE6 cells. VeroE6 cells were treated with pH-sensitive dye (green in low pH endosomes) and the indicated inhibitor 4H30 (25 μg/mL), bafilomycin A1 (BA1, 50 nM) or DMEM. Nuclei were stained as blue. Cell only without treatment was the negative control (Neg). Representative live-cell images were taken by confocal microscope. Experiments were repeated with two independent biological samples. […]
# [3] = test system: fusion between 293T-Spike and Calu-3 cells; assay type: cell-based
# [4] = test system: spike-ACE2-mediated cell fusion in 293T cells; assay type: cell-based; details: 4H30 40 μM, bafilomycin A1 50 nM, remdesivir 80 μM; 6 h post coculture
# [5] = test system: SARS-CoV-2; details: cited from earlier work
# [6] = test system: SARS-CoV-2 (B.1.617.2, Delta); test: Post-exposure antiviral assay in hamsters, Delta; assay type: in vivo; details: for syncytia formation in hamster lungs: Delta, compared with mock-treated hamsters; for inhibition of viral replication in hamster lungs (PFU/lung) / lung inflammation: in vivo, hamster
# [7] = Cytotoxicity MTT assay, VeroE6; assay type: cell-based; details: VeroE6 cells, 24 h at 37 °C, DMEM with 1% FBS, n = 3, read-out: 50% toxicity concentration (TC50)
# Procedure: (§1) Cytotoxicity of peptides was determined by the detection of 50% cytotoxic concentration (CC50) using a tetrazolium-based colorimetric MTT assay. Briefly, cells were seeded in a 96-well cell culture plate at an initial density of 4 × 10^4 cells per well in DMEM supplemented with 10% FBS and incubated overnight. Cell culture media were removed and then DMEM supplemented with various concentrations of peptides and 1% FBS were added to each well. After 24 h incubation at 37 °C, MTT solution (5 mg/mL, 10 μL per well) was added to each well for incubation at 37 °C for 4 h. Then, 100 μL of 10% SDS in 0.01 M HCl was added to each well. After further incubation at room temperature with shaking overnight, the plates were read at OD570 using VictorTM X3 Multilabel Reader (PerkinElmer, USA). Cell culture wells without peptides were used as the experiment control and the medium only served as a blank control.
# [8] = test system: SARS-CoV-2 B.1.1.63; details: B.1.1.63, 18 h
# [9] = intranasal, three doses of 0.5 mg/kg within two days; 4 days post-inoculation
# [10] = test system: SARS-CoV-2; test: Plaque assay after 10,000-fold dilution of treated virus; assay type: cell-based
# [11] = mice; intranasal, three doses of 0.5 mg/kg within two days; compared with the PBS group; three mice in each group
# [12] = test system: SARS-CoV-2; test: Viral RNA copies in VeroE6 cell lysate after pretreatment (RT-qPCR); assay type: cell-based; details: virus pretreated by 4H30 (25 μg/mL), DMEM-treated virus 50-fold, n = 4
# [13] = Cytotoxicity MTT assay, Calu-3; assay type: cell-based; details: human, Calu-3 cells, 24 h at 37 °C, DMEM with 1% FBS, n = 3, read-out: 50% toxicity concentration (TC50)
# Procedure: as §1
# [14] = ELISA binding to chondroitin sulfate; details: CS 300, 75 ng coated on ELISA plate; detection by anti-HBD2; compared with BSA; n = 4
# [15] = biological target: spike-ACE2 binding (Severe acute respiratory syndrome coronavirus 2, UniProt P0DTC2); test: ELISA of spike binding to ACE2; details: ACE2 (150 ng) coated on ELISA plate; n = 6
# [16] = test system: MERS-CoV; details: 18 h
# [17] = test system: SARS-CoV-2 (B.1.1.63); test: Post-exposure antiviral assay in hamsters, B.1.1.63; details: hamster, in vivo
# [18] = test system: SARS-CoV-2; test: Viral release assay; assay type: cell-based
# [19] = test system: SARS-CoV-2; test: Viral attachment assay at 4 °C (RT-qPCR); assay type: cell-based
# [20] = test system: SARS-CoV-2 (B.1.1.63); test: Pre-exposure antiviral assay in hamsters; assay type: in vivo; details: compared with mock-treated hamsters
# [21] = ELISA binding to heparan sulfate; details: HS 300, 75 ng coated on ELISA plate; detection by anti-HBD2; compared with BSA; n = 4
compound,measurement,setting,value
CC[C@H](C)[C@H](NC(=O)[C@H](C)NC(=O)CN)C(=O)N[C@@H](CS)C(=O)N[C@@H](Cc1c[nH]cn1)C(=O)N1CCC[C@H]1C(=O)N[C@H](C(=O)N[C@@H](Cc1ccccc1)C(=O)N[C@@H](CS)C(=O)N1CCC[C@H]1C(=O)N[C@@H](CCCNC(=N)N)C(=O)N[C@@H](CCCNC(=N)N)C(=O)N[C@@H](Cc1ccc(O)cc1)C(=O)N[C@@H](CCCCN)C(=O)N[C@@H](CCC(N)=O)C(=O)N[C@H](C(=O)NCC(=O)N[C@H](C(=O)N[C@@H](CS)C(=O)NCC(=O)N[C@@H](CC(C)C)C(=O)N1CCC[C@H]1C(=O)NCC(=O)N[C@H](C(=O)N[C@@H](CCCCN)C(=O)N[C@@H](CS)C(=O)N[C@@H](CS)C(=O)N[C@@H](CCCCN)C(=O)N[C@@H](CCCCN)C(=O)N1CCC[C@H]1C(=O)O)[C@@H](C)O)[C@@H](C)O)[C@@H](C)CC)C(C)C [H30] (H-GAICHPVFCPRRYKQIGTCGLPGTKCCKKP-OH; N-terminus and C-terminus assumed),50% inhibitory concentration IC50,[1],> 25 µg/mL
same,antiviral activity in the low salt condition,[1],more effective in the low salt condition
CO/C1=C\C(C)=C\[C@@H](C)[C@@H](O)[C@@H](C)C/C(C)=C/C=C/[C@H](OC)[C@@H]([C@@H](C)[C@@H](O)[C@H](C)[C@@]2(O)C[C@@H](O)[C@H](C)[C@@H](C(C)C)O2)OC1=O [bafilomycin A1],inhibition of endosomal acidification in live cells,[2],could inhibit
same,"inhibition of cell-cell fusion, 293T-Spike + Calu-3",[3],could not inhibit
same,"cell fusion size, 293T-Spike + Calu-3","[3]; 4H30 125 μg/mL, BA1 50 nM, 6-8 h post-coculture, non-fusion cell size ~10 μm",> 40 μm
same,"inhibition of spike-ACE2-mediated cell fusion, 293T-Spike + 293T-ACE2",[4],inhibition
CN(C)C(=O)COC(=O)Cc1ccc(OC(=O)c2ccc(NC(=N)N)cc2)cc1 [camostat],inhibition of SARS-CoV-2 in hamsters by camostat alone,[5],not significantly inhibited
same,"inhibition of cell-cell fusion, 293T-Spike + Calu-3",[3],could show the inhibition
"CCC(CC)COC(=O)[C@H](C)N[P@](=O)(OC[C@H]1O[C@@](C#N)(c2ccc3c(N)ncnn23)[C@H](O)[C@@H]1O)Oc1ccccc1 [remdesivir, reference compound]","inhibition of spike-ACE2-mediated cell fusion, 293T-Spike + 293T-ACE2",[4],without inhibition
same,syncytia formation in hamster lungs,[6],syncytia could be easily observed
same,inhibition of viral replication in hamster lungs (PFU/lung),[6],33 fold
same,lung inflammation,[6],could reduce lung inflammation
"I: GAICHPVFCPRRYKQIGTCGLPGTKCCKKPKK / II: GAICHPVFCPRRYKQIGTCGLPGTKCCKKPK / III: GAICHPVFCPRRYKQIGTCGLPGTKCCKKP / IV: GAICHPVFCPRRYKQIGTCGLPGTKCCKKP (amide I:31-IV:C, I:32-II:C, II:31-III:C; cysteines drawn unpaired) [4H30]",CC50 at 24 h,[7],> 400 µg/mL
same,inhibition of endosomal acidification in live cells,[2],could inhibit
same,IC50,[8],0.48 µg/mL
same,pathological and body weight changes in hamsters,[9],did not cause significant pathological and body weight changes
same,inhibition of infection after dilution of treated virus,[10],significantly inhibit
same,lung histopathology and body weight changes for 40 days,[11],no significant histopathological and consistent body weight change
same,viral RNA increase at 6 hpi compared with viral load at 1 hpi,[12],less than threefold
same,"inhibition of cell-cell fusion, 293T-Spike + Calu-3","[3]; 4H30 125 μg/mL, bafilomycin A1 50 nM, camostat 100 μg/mL, 6-8 h post-coculture",could not inhibit
same,"inhibition of spike-ACE2-mediated cell fusion, 293T-Spike + 293T-ACE2",[4],could inhibit the fusion
same,CC50 at 24 h,[13],> 400 µg/mL
same,binding to chondroitin sulfate (CS),[14],effectively bind
same,effect on binding between the spike and ACE2,[15],did not directly affect the binding
same,IC50,[16],1.01 µg/mL
same,"inhibition of SARS-CoV-2 replication in lungs, post-exposure",[17],significantly inhibit
same,50% inhibitory concentration IC50,[1],0.59 µg/mL
same,antiviral activity in the low salt condition,[1],significantly inhibited
same,inhibition of viral release,[18],significantly inhibit viral release
same,SARS-CoV-2 attachment to A549 (ACE2–) and Calu-3 (ACE2+) cells,"[19]; cells treated with 12.5 μg/mL, attachment at 4 °C, compared with BSA- or DMEM-treated cells",significantly increased
same,SARS-CoV-2 attachment to VeroE6 cells,"[19]; virus pre-mixed with 25 μg/mL for 1 hour, attachment at 4 °C for 1 hour, n = 4",increase
same,syncytia formation in hamster lungs,[6],could reduce the syncytia formation
same,inhibition of viral replication in hamster lungs (PFU/lung),[6],9 fold
same,lung inflammation,[6],could reduce lung inflammation
same,syncytia in bronchial epithelium,[20],reduced
same,binding to heparan sulfate (HS),[21],effectively bind
